# Laboratory results as given in publication PMC6838683, “Discovery of Human Signaling Systems: Pairing Peptides to G Protein-Coupled Receptors” (Cell, 2019).
# Positions of bridges follow the written chain, without caps; N, C: chain ends. Residues, ends and D or L forms follow the SMILES beside them.
# How the values were obtained:
# [1] = target: T1, MAS1 (Homo sapiens, UniProt P04201); assay: β-arrestin recruitment (Tango), indicative pairing; assay type: cell-based; conditions: mean, n = 3
# T1 construct: host or cells: HTLA cells (HEK293-derived)
# T1 sequence (P04201 1-325): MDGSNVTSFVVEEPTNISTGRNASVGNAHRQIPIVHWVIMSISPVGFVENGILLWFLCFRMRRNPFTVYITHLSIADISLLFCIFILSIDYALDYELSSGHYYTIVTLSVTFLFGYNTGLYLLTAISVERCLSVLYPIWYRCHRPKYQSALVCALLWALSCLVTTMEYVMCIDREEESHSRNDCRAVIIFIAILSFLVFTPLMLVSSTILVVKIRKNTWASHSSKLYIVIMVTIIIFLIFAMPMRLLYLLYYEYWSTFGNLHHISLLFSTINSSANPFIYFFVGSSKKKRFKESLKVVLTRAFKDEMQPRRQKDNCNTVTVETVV
# Protocol: The peptide library was additionally screened against 120 GPCR targets in parallel, including all available orphan receptors and 27 known class A peptide receptors using the Tango assay platform ([Kroeze et al., 2015]). Briefly, HTLA cells (a HEK293 cell line stably expressing a tTA-dependent luciferase reporter and a β-arrestin2-TEV fusion gene) were plated 10,000 cells/well in poly-L-lysine–coated clear-bottom white 384-well plates in DMEM supplemented with 10% FBS, 100 U/ml penicillin and 100 μg/ml streptomycin, 2 μg/ml puromycin and 100 μg/ml hygromycin B. 24 hr later, cells were transfected with Tango GPCR constructs using the calcium phosphate method ([Jordan et al., 1996]). The next day, culture medium was changed to DMEM + 1% dFBS and 10 μM peptides were added for overnight stimulation. Bright-Glo solution (Promega) was incubated for 15–20 min at room temperature, and luminescence was counted using a Trilux luminescence counter (Wallac).
# For subsequent peptide validation experiments using Tango assays, HTLA cells were transiently transfected in 10 cm dishes with the receptor of interest using polyethylenimine (PEI) ([Longo et al., 2013]). After 24 hr, 25,000 cells/well were plated in clear bottom, white-walled 384-well plates. Assays were performed as described above, with luminescence measured using an EnSpire 2300 Multimode plate reader (PerkinElmer). Luminescence counts were exported into Excel and were analyzed using GraphPad Prism 7.
# [2] = system: 120 GPCR targets, including all available orphan receptors and 27 known class A peptide receptors; assay: Peptide library screen, β-arrestin recruitment (Tango, fold change, 10 μM); assay type: cell-based, human; conditions: for Confirmation of known target in Tango: repeat hitters of the peptide library screen, the value names the known receptor(s) confirmed in the β-arrestin recruitment (Tango) screen; for Active at: (activity in b-arrestin recruitment assays): Tango, receptor(s) at which the known library peptide was active, among its known GPCR target(s), validated pairings
# Summary of the method: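 HTLA cells (HEK293 with tTA-dependent luciferase and β-arrestin2-TEV) transiently transfected with Tango GPCR constructs, then stimulated overnight with 10 μM peptides in 1% dFBS medium. Luciferase luminescence read after 15–20 min Bright-Glo incubation at room temperature.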
# [3] = target: T2, MRGPRX2 (Homo sapiens, UniProt Q96LB1); assay: β-arrestin recruitment (Tango), known peptide receptors; assay type: cell-based; conditions: mean, n = 3
# T2 construct: host or cells: HTLA cells (HEK293-derived)
# T2 sequence (Q96LB1 1-330): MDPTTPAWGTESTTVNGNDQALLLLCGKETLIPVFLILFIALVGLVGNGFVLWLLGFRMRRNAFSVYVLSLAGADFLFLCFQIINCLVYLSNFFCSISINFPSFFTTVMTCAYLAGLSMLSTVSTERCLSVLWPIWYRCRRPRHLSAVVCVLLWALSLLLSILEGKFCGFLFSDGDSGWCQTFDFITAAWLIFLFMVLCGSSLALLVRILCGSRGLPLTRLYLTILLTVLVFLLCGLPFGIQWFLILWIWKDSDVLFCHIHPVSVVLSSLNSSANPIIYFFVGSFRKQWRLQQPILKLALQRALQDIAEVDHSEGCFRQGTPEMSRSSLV
# [4] = target: T3, GPR68 (Homo sapiens, UniProt Q15743); assay: Dynamic mass redistribution (DMR), concentration-response; assay type: cell-based; set-up: hIL-2Ra signal peptide (N); expressed in transfected cells; conditions: GPR68; dynamic mass redistribution, concentration-response; mean, SEM and n (3-4)
# Summary of the method: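 Doxycycline-induced (0.1 μg/ml) SNAP-tagged receptors in TREx 293 cells, equilibrated 90 min at 22°C in HEPES-buffered HBSS, pH 7.4, with 0.1% DMSO. Peptide-evoked optical wavelength shift recorded for 60 min at 22°C, buffer/solvent corrected and quantified as area under the curve. Mean ± SEM of at least 3 independent experiments.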
# Target sequence in this assay (Q15743 2-365 limits assumed): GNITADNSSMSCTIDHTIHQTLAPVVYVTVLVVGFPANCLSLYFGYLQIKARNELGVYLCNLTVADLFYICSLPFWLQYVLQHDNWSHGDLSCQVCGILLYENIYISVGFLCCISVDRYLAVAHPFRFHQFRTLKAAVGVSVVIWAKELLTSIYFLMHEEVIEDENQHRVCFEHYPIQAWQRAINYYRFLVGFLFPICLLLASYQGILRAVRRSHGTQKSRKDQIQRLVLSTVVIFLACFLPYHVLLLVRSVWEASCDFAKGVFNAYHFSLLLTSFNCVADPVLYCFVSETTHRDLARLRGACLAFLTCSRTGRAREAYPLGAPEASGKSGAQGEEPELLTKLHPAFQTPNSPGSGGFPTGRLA
# [5] = target: T4, HA-OGR1 (GPR68) (Homo sapiens, UniProt Q15743); assay: Ca2+ mobilization assay (Fluo-4); assay type: cell-based; conditions: GPR68, calcium mobilization, mean, SEM and n (3-5) in separate columns
# T4 construct: HA; expressed in transfected cells
# Protocol: Peptide-dependent Ca^2+ mobilization responses were measured in HEK293 stable cell lines (HA-OGR1 (GPR68) and vector pcDNA) ([Saxena et al., 2012]) that were seeded in 96-well plates (1 × 10^5 cells/well) and cultured at 37°C with 5% CO2 to near confluence in DMEM with 10% FBS (Corning). Six hours prior to assay, medium was changed to pH 8.0 or pH 7.4 HAM’s F12 Nutrient Mixture (GIBCO) without FBS and transferred to a 37°C incubator without CO2. One hour prior to stimulation, cells were incubated in pH 8.0 or pH 7.4 HBSS with Ca^2+ and Mg^2+ (GIBCO), supplemented with 15 mM HEPES, 2 μM Fluo-4 AM (Invitrogen) and 1.5 mM probenecid ([…] to prevent Fluo-4 efflux) as described previously ([Pera et al., 2018]). Indicated peptides were pipetted using an automated system and emission signal was recorded at 525 nm after excitation at 485 nm using Flex Station III (Molecular Devices). Ca^2+ mobilization responses were determined by subtracting basal fluorescence from the net peak of agonist-induced fluorescence. Ionomycin (1 μM) was used to calculate the maximum Ca^2+ signal to normalize peptide-mediated responses.
# [6] = target: T3, GPR68; assay: Real-time receptor internalization (TR-FRET), concentration-response; assay type: cell-based; set-up: hIL-2Ra signal peptide (N); expressed in transfected cells; conditions: GPR68; real-time internalization; mean, SEM and n (3)
# Summary of the method: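 Doxycycline-induced SNAP-tagged receptor cells had surface receptors labelled with Lumi4-Tb and fluorescein-O-acetic acid added. TR-FRET internalization after peptide addition was recorded for 60 min at 37°C (ex 340, em 520/615 nm). Area under the curve, normalized to plate average, gave concentration-response curves.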
# Target sequence in this assay (Q15743 2-365 limits assumed): as above
# [7] = target: T3, GPR68; assay: GloSensor cAMP assay (Gs), allosteric operational model fitting; assay type: cell-based; set-up: expressed in transfected cells; host or cells: HEK293T, transient (PEI), co-transfected with GloSensor cAMP plasmid; conditions: GPR68; GloSensor cAMP; mean, SEM and n (4)
# Protocol: GPR68-mediated cAMP signaling was measured using GloSensor cAMP assays as published previously ([Huang et al., 2015], [Yu et al., 2019]) with modifications as indicated below. Calcium- and magnesium-free HBSS was supplemented with different organic buffer reagents for different pH solutions, 20 mM 2-(N-morpholino)ethanesulfonic acid (MES, Alfa Aesar) for pH 6.00 – 6.70, 20 mM 4-(2-hydroxyethyl)-1-piperazineethanesulfonic acid (HEPES, Fisher) for pH 6.80 – 8.20, and 20 mM (tris(hydroxymethyl)methylamino)propanesulfonic acid (TAPS) for pH 8.30 – 8.60. The phosphodiesterase (PDE) inhibitor Ro 20-1724 (10 μM final, Cayman Chemical) was included in pH buffers to eliminate potential effect of PDE […]. HEK293T cells were transfected with a modified polyethylenimine (PEI, Polysciences) transfection method ([Longo et al., 2013]). For a 15-cm dish of HEK293T cells with 25 mL growth medium, 8 μg receptor DNA and 8 μg GloSensor DNA (Promega) were mixed in 1 mL of Opti-MEM medium followed by addition of 80 μL PEI reagents. The mixture was added to cells after 20 min incubation at room temperature. Overnight transfected cells were plated in poly-L-lysine (Sigma) coated 384-well white clear bottom plates (Greiner Bio-One, #781098) using DMEM (Corning) + 1% dialyzed FBS (Omega Scientific) for at least 6 h (up to 24 h). Cells were removed of medium before receiving 20 μL/well of 3.5 mM luciferin (Goldbio) prepared in assay buffer (HBSS, 20 mM TAPS, pH 8.40, 10 μM Ro 20-1724) for 1 h at 37°C. Luciferin loading solutions were removed and premixed drug solutions at desired pH conditions were added to cells (25 μL/well). Luminescence was measured 25-30 min after drug application. Results were normalized (basal and maximum responses in the absence of modulator were set to be 0 and 100%) and pooled for analysis using GraphPad Prism.
# All of the other parameters, including allosteric affinity cooperativity (α), allosteric modulator binding affinity KB, orthosteric agonist (protons) efficacy τA, system maximal response, and slope factor n were all globally shared for all datasets for each modulator. […] We therefore used an allosteric index, log(αβ/KB) ([Kenakin, 2017a]), which contains both allosteric binding affinity and cooperativity, to quantify the overall allosteric activity.
# Target sequence in this assay (Q15743 whole entry): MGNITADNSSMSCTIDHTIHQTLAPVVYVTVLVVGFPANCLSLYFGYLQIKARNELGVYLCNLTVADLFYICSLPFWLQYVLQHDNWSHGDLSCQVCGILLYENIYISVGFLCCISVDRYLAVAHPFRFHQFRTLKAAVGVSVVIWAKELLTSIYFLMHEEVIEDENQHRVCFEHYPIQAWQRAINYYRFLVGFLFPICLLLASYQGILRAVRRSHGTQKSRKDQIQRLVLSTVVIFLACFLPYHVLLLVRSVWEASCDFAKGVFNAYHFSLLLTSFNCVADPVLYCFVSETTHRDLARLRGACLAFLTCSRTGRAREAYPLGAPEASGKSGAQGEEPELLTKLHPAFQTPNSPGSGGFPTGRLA
# T4 sequence (Q15743 whole entry): as above
Compound,"pEC50, Tango (fold over basal) [1]",Confirmation of known target in Tango [2],Active at: (activity in b-arrestin recruitment assays) [2],DMR assays Emax (peak or AUC) [4],Internalization assays Emax (AUC) [6],other results
DRMPCRNFFWKTFSSCK (disulfide) [Peptide 121],4.96,SST2,–,–,–,–
AGCKNFFWKTFTSC (disulfide) [Peptide 103],4.33,SST2,SST2,–,–,"Emax, Tango (fold over basal) [3]: 6.6 fold over basal; pEC50, Tango (fold over basal) [3]: 4.98"
YGGFLRRIRPKLKWDNQ [Peptide 119],5.04,"kappa, mu",kappa,–,–,–
KPLRKDENGTSVAEYPMSASQSNKGVDVNNAVV [Peptide 193],9.32,–,–,–,–,"Emax, Tango (fold over basal) [1]: 1.3 fold over basal"
CC[C@H](C)[C@H](NC(=O)[C@H](CCCNC(=N)N)NC(=O)[C@H](C)NC(=O)CNC(=O)[C@H](CCCCN)NC(=O)[C@H](CCCNC(=N)N)NC(=O)[C@@H](NC(=O)[C@H](C)NC(=O)[C@@H]1CSSC[C@H](NC(=O)[C@H](CCSC)NC(=O)[C@@H]2CCCN2C(=O)[C@@H](NC(=O)[C@H](CCC(N)=O)NC(=O)CNC(=O)[C@@H](N)Cc2ccc(O)cc2)C(C)C)C(=O)N[C@@H](CC(=O)O)C(=O)N[C@@H](C)C(=O)NCC(=O)N[C@@H](CCC(=O)O)C(=O)N[C@@H](CCC(N)=O)C(=O)N1)C(C)C)C(N)=O [139 original] (H-YGQVPMCDAGEQCAVRKGARI-NH2; disulfide 7-13; N-terminus assumed),–,–,–,944453,9.4,Emax ([5]; read-out: Calcium mobilization assays Emax (% ionomycin)): 73.1%; EC50 ([5]; read-out: Calcium mobilization assays pEC50 (converted)): 7.08 µM
CC[C@H](C)[C@H](NC(=O)[C@H](CCCNC(=N)N)NC(=O)[C@H](C)NC(=O)CNC(=O)[C@H](CCCCN)NC(=O)[C@H](CCCNC(=N)N)NC(=O)[C@@H](NC(=O)[C@H](C)NC(=O)[C@@H]1CSSC[C@H](NC(=O)[C@H](CCSC)NC(=O)[C@@H]2CCCN2C(=O)[C@@H](NC(=O)[C@H](CCC(N)=O)NC(=O)CNC(=O)[C@@H](N)Cc2ccc(O)cc2)C(C)C)C(=O)N[C@@H](CC(=O)O)C(=O)N[C@@H](C)C(=O)NCC(=O)N[C@@H](CCC(=O)O)C(=O)N[C@@H](CCC(N)=O)C(=O)N1)C(C)C)C(N)=O [139 resynthesized] (H-YGQVPMCDAGEQCAVRKGARI-NH2; disulfide 7-13; N-terminus and C-terminus assumed),–,–,–,749669,13.6,GloSensor cAMP assays Emax (fold change) [7]: 25.2 fold change
